From ChEMBL document CHEMBL1126320, “N,N'-disubstituted guanidine high-potency sweeteners” (J Med Chem, 1992)

What was measured:
[1] = Sweetness potency at 1 mg/mL sucrose solution; weakly bitter
[2] = Sweetness potency at 2% sucrose solution
[3] = Sweetness potency at 4% sucrose solution

Row | SMILES | Sweetness potency [2] | also measured
1 | C[C@H](/N=C(\N)NCC(=O)O)c1ccccc1 | – | Sweetness potency [1]: weakly bitter
2 | C[C@H](/N=C(/NCC(=O)O)Nc1ccc(C#N)cc1)c1ccccc1 | 28000 | –
3 | N#Cc1ccc(N/C(=N\CC(=O)O)NCC2CCCCC2)cc1 | 35000 | –
4 | N/C(=N\CC(=O)O)NCC1CCCCC1 | – | Sweetness potency [1]: weakly bitter
5 | N#Cc1ccc(N/C(=N/CC(=O)O)NC2CCCCCCC2)cc1 | 170000 | –
6 | N/C(=N\C(c1ccccc1)c1ccccc1)NCC(=O)O | – | Sweetness potency [3]: 400
7 | N/C(=N\C1CCCCCCC1)NCC(=O)O | 200 | –
8 | N#Cc1ccc(N/C(=N\CC(=O)O)NC(c2ccccc2)c2ccccc2)cc1 | 200000 | –
